Reference: patent EP4740933A1, “CLEANING COMPOSITION AND USE THEREOF” (Suzhou Oulit Biopharm Co., Ltd., priority 2023, dated 2025)
Several values for one entry are separate records, joined by “and”; a condition that tells them apart may be missing. Equal values may be shown once. Read-outs that look alike come from different tables or passages of the source.

What was measured:
[1] = system: Reconstructed Human Epidermis; assay: In vitro skin irritation: reconstructed human epidermis test (OECD TG 439); assay type: cell-based; design: Viability Mean: concentration or dose not given beside the values
Bovine Corneal = assay: Eye irritation: Bovine Corneal Opacity and Permeability Test (OECD TG 437); conditions: positive control, no test concentration printed (/)
From the text: Basis: Bovine Corneal Opacity and Permeability Test, OECD TG 437 (2020).

[2] = Foaming test, modified Ross-Miles method (GB/T7462-1994); assay type: physicochemical; conditions: 2.5 g/L, 50 ± 0.5 °C
Method: Conditions: test solution concentration: 2.5 g/L; test temperature: 50 ± 0.5 °C; test water: soft water/hard water.

Row | Foam volume at 30 s ([2]; soft water) | Foam volume at 3 min ([2]; soft water) | Foam volume at 5 min ([2]; soft water) | Compound | IL-1α content [1] | Viability Mean [1] | also measured
1 | – | – | – | CCCCCCCCCCCC(=O)N[C@@H](C)C(=O)O.N=C(N)NCCC[C@H](N)C(=O)O [LA-Arg] | 3.5 ± 0.38 pg/mL | 97.40% | –
2 | – | – | – | CCCCCCCCCCCC(=O)NC(C)C(=O)[O-].[Na+] (stereo not shown) [LA-NaOH] | 3.88 ± 5.28 pg/mL | 86.99% | –
3 | – | – | – | CCCCCCCCCCCC(=O)N[C@@H](C)C(=O)O [Lauroyl alanine (LA), Lauroyl alanine] | 2.07 ± 0.59 pg/mL | 95.52% | –
4 | – | – | – | CCCCCCCCCCCCOS(=O)(=O)[O-].[Na+] [Positive control (PC)] | 89.45 ± 10.06 pg/mL | 4.03% | –
5 | – | – | – | CCO [Positive control (absolute ethanol), absolute ethanol] | – | – | In vitro irritancy score (IVIS) (Bovine Corneal): 32.3545
6 | – | – | – | CCCCCCCCCCCCOS(=O)(=O)[O-].[Na+] [Sodium dodecyl sulfate (K12), Sodium dodecyl sulfate] | 96.26 ± 3.21 pg/mL | – | Viability Mean ([1]; human): 40.79%
7 | 310 mL | 250 mL | 210 mL | Sodium laureth sulfate [Sodium laureth sulfate (AES)] | 20.59 ± 5.27 pg/mL | 57.12% | –
8 | 430 mL | 390 mL | 360 mL | potassium cocoyl glycinate [GCK30] | – | – | –
9 | 330 mL | 200 mL | 140 mL | sodium cocoyl alaninate [ACS30] | – | – | –
10 | 460 mL | 430 mL | 400 mL | sodium cocoyl glycinate [GC30] | – | – | –
11 | 310 mL | 260 mL | 230 mL | sodium cocoylmethyl taurate [CMT-35] | – | – | –

Row | Compound | Foam volume at 30 s ([2]; soft water) | Foam volume at 3 min ([2]; soft water) | Foam volume at 5 min ([2]; soft water) | IL-1α content [1] | Viability Mean [1] | also measured
12 | Lauroyl alanine-arginine | 380 mL | 340 mL | 335 mL | – | – | Foam volume at 30 s ([2]; hard water): 570 mL and 580 mL; Foam volume at 3 min ([2]; hard water): 540 mL and 560 mL and 565 mL; Foam volume at 5 min ([2]; hard water): 530 mL and 545 mL and 550 mL
